Laboratory results from patent US20230159436A1, “APPLICATIONS OF AMIDE ANALOGS OF TRITERPENES IN CURES OF CANCER AND OTHER DISEASES” (Pacific Arrow Limited, priority 2021, published 2023).

Tested on: U2OS, H460, HTB-9, ES2, HCT116, Capan, OVCAR3, DU145, SK-Mel-5, KB, A498, MCF-7, HepG2, T98G, K562, HeLa
Test: MTT Cytotoxic Assay of reaction products and isolated compounds
Type: cell-based
Source text: The peaks, fractions and compounds are selected according to the activities of times studies and the changes of peaks. Selecting the HPLC fractions for isolation is according to the cytotoxic activity of the reaction product obtained at a specific time. The compounds having strong to weak activities are selected and isolated. Selecting the HPLC fractions for isolation may be according to the cytotoxic activity of times studies and the change of peaks. The anti cancer activities are the MTT studies of bone (U2OS), lung (H460), bladder (HTB-9), ovary (ES2), colon (HCT116), pancreas (Capan), ovary (OVCAR3), prostate (DU145), skin (SK-Mel-5), mouth (KB), kidney (A498), breast (MCF-7), liver (HepG2), brain (T98G), luekemia (K562), cervix (HeLa).
Esterification, amidation, amination, or sulfonamidation of compound (A), (B), (C), (D1), (D2), (E), (F), (G), (H1), (H2), E4A, E4A2Y, E4D, E4D1, (P1), P(2), terpene, isoprene, triterpenes, hydroxylated triterpenes, with acyl halide, wherein the halide comprise chloride, bromide, fluoride and iodide, wherein the acyl halide comprise acyl chloride, wherein acyl chloride comprise tigloyl chloride, angeloyl chloride, acetyl chloride, crotonoyl chloride, 3,3-dimethylartyloyl chloride, senecioyl chloride, cinnamoyl chloride, pentenoyl chloride, hexanoyl chloride, benzoyl chloride, ethylbutyryl chloride, propionyl chloride, 2-propenoyl chloride, isobutyryl chloride, butyryl chloride, (2E)-2-pentenoyl chloride, 4-Pentenoyl chloride, 5-hexenoyl chloride, heptanoyl chloride, octanoyl chloride, nonanoyl chloride, decanoyl chloride, Lauroyl chloride, myristoyl chloride, oleoyl chloride. The compounds vary in composition when the time or temperature of the reaction is changed. The peaks, fractions and compounds are selected according to the activities of times studies and the changes of peaks. The compounds having strong to weak activities are selected and isolated. The anti cancer activities (Cytotoxic Assay) are the MTT studies of bone (U2OS), lung (H460), bladder (HTB-9), ovary (ES2), colon (HCT116), pancreas (Capan), ovary (OVCAR3), prostate (DU145), skin (SK-Mel-5), mouth (KB), kidney (A498), breast (MCF-7), liver (HepG2), brain (T98G), luekemia (K562), cervix (HeLa). The active esterification, amidation, amination, or sulfonamidation products are purified with HPLC. The reaction product of mixtures and individual compounds are tested with MTT Cytotoxic Assay. Details of method are in Experiment 3 of the present application. A second esterification of compound can be selected from the above experiment results to produce new active compounds. A partial esterification compound is selected from the above experiments to perform a second or repeated with a third esterification with different acyl chloride in order to produce new active compounds with the experiments in the present application. The active compounds of this invention are triterpenes in form of amine, sulfonamides, amide, and urea analogs, providing extremely stable activity in solution. They prolong the activities and duration of drug in a subject.
Cells. HTB-9 (bladder), HeLa-S3 (cervix), DU145 (prostate), H460 (lung), MCF-7 (breast), K562 (leukemia), HCT116 (colon), HepG2 (liver), U2OS (bone), T98G (brain), SK-MEL-5 (Skin) and OVCAR 3, ES2 (ovary), Pancreas (Capan), Mouth (KB), Kidney (A498).
MTT Assay. The procedure for MTT assay followed the method described by Carmichael et al. (1987) with modifications. The cells were seeded into a 96-well plate at for 24 hours before drug-treatment. The cells were then exposed to the drugs for 48, 72, or 96 hours. After the drug-treatment, MTT (0.5 mg/mL) was added to cultures and incubated for an hour. The formazan (product of the reduction of tetrazolium by viable cells) formed and was dissolved with DMSO and the O.D. at 490 nm, and was measured by an ELISA reader. The MTT level of the cells before drug-treatment was also measured (T0). […]

Row | SMILES | Cytotoxicity activity
1 | CC=C(C)C(=O)NCC1(C)C(N)CCC2(C)C1CCC1(C)C2CC=C2C3CC(C)(C)C(N)C(N)C3(CNC(=O)C(C)=CC)C(N)CC21C (centres unmarked) [AA1] | moderate
2 | CC=C(C)C(=O)NCC1(C)C(O)CCC2(C)C1CCC1(C)C2CC=C2C3CC(C)(C)C(O)C(O)C3(CNC(=O)C(C)=CC)C(O)CC21C (centres unmarked) [AA2] | strong
3 | CC=C(C)C(=O)NCC1(C)C(N)CCC2(C)C1CCC1(C)C2CC=C2C3CC(C)(C)C(NC(=O)C(C)=CC)C(N)C3(CN)C(N)CC21C (centres unmarked) [AA3] | moderate
4 | CC=C(C)C(=O)NCC1(C)C(N)CCC2(C)C1CCC1(C)C2CC=C2C3CC(C)(C)C(NC(=O)C(C)=CC)C(N)C3(CNC(=O)C(C)=CC)C(N)CC21C (centres unmarked) [AA4] | weak
5 | CC(C)=CC(=O)NCC1(C)C(N)CCC2(C)C1CCC1(C)C2CC=C2C3CC(C)(C)C(N)C(N)C3(CNC(=O)C=C(C)C)C(N)CC21C (centres unmarked) [BB1] | moderate
6 | CC(C)=CC(=O)NCC1(C)C(O)CCC2(C)C1CCC1(C)C2CC=C2C3CC(C)(C)C(O)C(O)C3(CNC(=O)C=C(C)C)C(O)CC21C (centres unmarked) [BB2] | strong
7 | CC(C)=CC(=O)NCC1(C)C(N)CCC2(C)C1CCC1(C)C2CC=C2C3CC(C)(C)C(NC(=O)C=C(C)C)C(N)C3(CN)C(N)CC21C (centres unmarked) [BB3] | moderate
8 | CC(C)=CC(=O)NCC1(C)C(N)CCC2(C)C1CCC1(C)C2CC=C2C3CC(C)(C)C(NC(=O)C=C(C)C)C(N)C3(CNC(=O)C=C(C)C)C(N)CC21C (centres unmarked) [BB4] | weak
9 | C=CCCC(=O)NCC1(C)C(N)CCC2(C)C1CCC1(C)C2CC=C2C3CC(C)(C)C(N)C(N)C3(CNC(=O)CCC=C)C(N)CC21C (centres unmarked) [CC1] | moderate
10 | C=CCCC(=O)NCC1(C)C(O)CCC2(C)C1CCC1(C)C2CC=C2C3CC(C)(C)C(O)C(O)C3(CNC(=O)CCC=C)C(O)CC21C (centres unmarked) [CC2] | strong
11 | C=CCCC(=O)NCC1(C)C(N)CCC2(C)C1CCC1(C)C2CC=C2C3CC(C)(C)C(NC(=O)CCC=C)C(N)C3(CN)C(N)CC21C (centres unmarked) [CC3] | moderate
12 | C=CCCC(=O)NCC1(C)C(N)CCC2(C)C1CCC1(C)C2CC=C2C3CC(C)(C)C(NC(=O)CCC=C)C(N)C3(CNC(=O)CCC=C)C(N)CC21C (centres unmarked) [CC4] | weak
13 | CCCCCC(=O)NCC1(C)C(N)CCC2(C)C1CCC1(C)C2CC=C2C3CC(C)(C)C(N)C(N)C3(CNC(=O)CCCCC)C(N)CC21C (centres unmarked) [DD1] | moderate
14 | CCCCCC(=O)NCC1(C)C(O)CCC2(C)C1CCC1(C)C2CC=C2C3CC(C)(C)C(O)C(O)C3(CNC(=O)CCCCC)C(O)CC21C (centres unmarked) [DD2] | strong
15 | CCCCCC(=O)NCC1(C)C(N)CCC2(C)C1CCC1(C)C2CC=C2C3CC(C)(C)C(NC(=O)CCCCC)C(N)C3(CN)C(N)CC21C (centres unmarked) [DD3] | moderate
16 | CCCCCC(=O)NCC1(C)C(N)CCC2(C)C1CCC1(C)C2CC=C2C3CC(C)(C)C(NC(=O)CCCCC)C(N)C3(CNC(=O)CCCCC)C(N)CC21C (centres unmarked) [DD4] | weak
17 | CCC(CC)C(=O)NCC1(C)C(N)CCC2(C)C1CCC1(C)C2CC=C2C3CC(C)(C)C(N)C(N)C3(CNC(=O)C(CC)CC)C(N)CC21C (centres unmarked) [EE1] | moderate
18 | CCC(CC)C(=O)NCC1(C)C(O)CCC2(C)C1CCC1(C)C2CC=C2C3CC(C)(C)C(O)C(O)C3(CNC(=O)C(CC)CC)C(O)CC21C (centres unmarked) [EE2] | strong
19 | CCC(CC)C(=O)NCC1(C)C(N)CCC2(C)C1CCC1(C)C2CC=C2C3CC(C)(C)C(NC(=O)C(CC)CC)C(N)C3(CN)C(N)CC21C (centres unmarked) [EE3] | moderate
20 | CCC(CC)C(=O)NCC1(C)C(N)CCC2(C)C1CCC1(C)C2CC=C2C3CC(C)(C)C(NC(=O)C(CC)CC)C(N)C3(CNC(=O)C(CC)CC)C(N)CC21C (centres unmarked) [EE4] | weak
21 | CC(=O)NCC1(C)C(N)CCC2(C)C1CCC1(C)C2CC=C2C3CC(C)(C)C(N)C(N)C3(CNC(C)=O)C(N)CC21C (centres unmarked) [HH1] | moderate

Row | SMILES | Cytotoxicity activity
22 | CC(=O)NCC1(C)C(O)CCC2(C)C1CCC1(C)C2CC=C2C3CC(C)(C)C(O)C(O)C3(CNC(C)=O)C(O)CC21C (centres unmarked) [HH2] | strong
23 | CC(=O)NCC1(C)C(N)CCC2(C)C1CCC1(C)C2CC=C2C3CC(C)(C)C(NC(C)=O)C(N)C3(CN)C(N)CC21C (centres unmarked) [HH3] | moderate
24 | CC(=O)NCC1(C)C(N)CCC2(C)C1CCC1(C)C2CC=C2C3CC(C)(C)C(NC(C)=O)C(N)C3(CNC(C)=O)C(N)CC21C (centres unmarked) [HH4] | weak
25 | CC=CC(=O)NCC1(C)C(O)CCC2(C)C1CCC1(C)C2CC=C2C3CC(C)(C)C(O)C(O)C3(CNC(=O)C=CC)C(O)CC21C (centres unmarked) [I I2] | strong
26 | CC=CC(=O)NCC1(C)C(N)CCC2(C)C1CCC1(C)C2CC=C2C3CC(C)(C)C(NC(=O)C=CC)C(N)C3(CN)C(N)CC21C (centres unmarked) [I I3] | moderate
27 | CC=CC(=O)NCC1(C)C(N)CCC2(C)C1CCC1(C)C2CC=C2C3CC(C)(C)C(N)C(N)C3(CNC(=O)C=CC)C(N)CC21C (centres unmarked) [II 1] | moderate
28 | CC=CC(=O)NCC1(C)C(N)CCC2(C)C1CCC1(C)C2CC=C2C3CC(C)(C)C(NC(=O)C=CC)C(N)C3(CNC(=O)C=CC)C(N)CC21C (centres unmarked) [II 4] | weak
29 | CC1(C)CC2C3=CCC4C5(C)CCC(N)C(C)(CNC(=O)C=Cc6ccccc6)C5CCC4(C)C3(C)CC(N)C2(CNC(=O)C=Cc2ccccc2)C(N)C1N (centres unmarked) [JJ1] | moderate
30 | CC1(C)CC2C3=CCC4C5(C)CCC(O)C(C)(CNC(=O)C=Cc6ccccc6)C5CCC4(C)C3(C)CC(O)C2(CNC(=O)C=Cc2ccccc2)C(O)C1O (centres unmarked) [JJ2] | strong
31 | CC1(C)CC2C3=CCC4C5(C)CCC(N)C(C)(CNC(=O)C=Cc6ccccc6)C5CCC4(C)C3(C)CC(N)C2(CN)C(N)C1NC(=O)C=Cc1ccccc1 (centres unmarked) [JJ3] | moderate
32 | CC1(C)CC2C3=CCC4C5(C)CCC(N)C(C)(CNC(=O)C=Cc6ccccc6)C5CCC4(C)C3(C)CC(N)C2(CNC(=O)C=Cc2ccccc2)C(N)C1NC(=O)C=Cc1ccccc1 (centres unmarked) [JJ4] | weak
33 | CC1(C)CC2C3=CCC4C5(C)CCC(N)C(C)(CNC(=O)c6ccccc6)C5CCC4(C)C3(C)CC(N)C2(CNC(=O)c2ccccc2)C(N)C1N (centres unmarked) [KK1] | moderate
34 | CC1(C)CC2C3=CCC4C5(C)CCC(O)C(C)(CNC(=O)c6ccccc6)C5CCC4(C)C3(C)CC(O)C2(CNC(=O)c2ccccc2)C(O)C1O (centres unmarked) [KK2] | strong
35 | CC1(C)CC2C3=CCC4C5(C)CCC(N)C(C)(CNC(=O)c6ccccc6)C5CCC4(C)C3(C)CC(N)C2(CN)C(N)C1NC(=O)c1ccccc1 (centres unmarked) [KK3] | moderate
36 | CC1(C)CC2C3=CCC4C5(C)CCC(N)C(C)(CNC(=O)c6ccccc6)C5CCC4(C)C3(C)CC(N)C2(CNC(=O)c2ccccc2)C(N)C1NC(=O)c1ccccc1 (centres unmarked) [KK4] | weak
37 | CCC(=O)NCC1(C)C(N)CCC2(C)C1CCC1(C)C2CC=C2C3CC(C)(C)C(N)C(N)C3(CNC(=O)CC)C(N)CC21C (centres unmarked) [LL1] | moderate
38 | CCC(=O)NCC1(C)C(O)CCC2(C)C1CCC1(C)C2CC=C2C3CC(C)(C)C(O)C(O)C3(CNC(=O)CC)C(O)CC21C (centres unmarked) [LL2] | strong
39 | CCC(=O)NCC1(C)C(N)CCC2(C)C1CCC1(C)C2CC=C2C3CC(C)(C)C(NC(=O)CC)C(N)C3(CN)C(N)CC21C (centres unmarked) [LL3] | moderate
40 | CCC(=O)NCC1(C)C(N)CCC2(C)C1CCC1(C)C2CC=C2C3CC(C)(C)C(NC(=O)CC)C(N)C3(CNC(=O)CC)C(N)CC21C (centres unmarked) [LL4] | weak
41 | C=CC(=O)NCC1(C)C(N)CCC2(C)C1CCC1(C)C2CC=C2C3CC(C)(C)C(N)C(N)C3(CNC(=O)C=C)C(N)CC21C (centres unmarked) [MM1] | moderate
